Consider two compounds from ChEMBL document CHEMBL5257089, “Gamabufotalin Induces Apoptosis and Cytoprotective Autophagy through the mTOR Signaling Pathway in Hepatocellular Carcinoma” (J Nat Prod, 2023).

Structures are written as SMILES. Active and inactive are the calls of the source. The rule behind the calls is not given here.

Experiment [1] has as its system Hep 3B2. The experiment in a line: Induction of autophagic flux in human Hep3B cells harbouring mCherry-egfp-LC3 assessed as increase in yellow puncta ratio at 10 nM by fluorescence imaging based assay. The experiment is classed as functional, cell-based.
The subject of experiment [2] is Hep 3B2. Description: Induction of apoptosis in human Hep3B cells assessed as necrotic cells at 10 nM incubated for 48 hrs in presence of gamabufotalin by Annexin V-FITC/PI staining based flow cytometry method (reference value: 1.2%). The experiment is classed as functional.
Experiment [3] relates to Huh-7. The experiment in a line: Induction of apoptosis in human Huh-7 cells assessed as late apoptotic cells at 10 nM incubated for 48 hrs in presence of gamabufotalin by Annexin V-FITC/PI staining based flow cytometry method (reference value: 4.7%). The class given is functional.
The test system of experiment [4] is Hep 3B2. Description: Induction of autophagic flux in human Hep3B cells assessed as rescue of LC3-I accumulation at 10 uM incubated for 48 hrs in presence of gamabufotalin by Western blot analysis. The experiment is classed as functional, cell-based.
For experiment [5], the system named is Hep 3B2. Description: Induction of apoptosis in human Hep3B cells assessed as viable cells at 10 nM incubated for 48 hrs in presence of gamabufotalin by Annexin V-FITC/PI staining based flow cytometry method (reference value: 94.0%). Particulars: read-out: Activity. The experiment is classed as functional.
For experiment [6], the system named is Hep 3B2. Description: Induction of apoptosis in human Hep3B cells assessed as increase in caspase-3 level at 10 nM incubated for 48 hrs in presence of gamabufotalin by immunoblot analysis. The experiment is classed as functional, cell-based.
The test system of experiment [7] is Hep 3B2. The experiment in a line: Induction of apoptosis in human Hep3B cells assessed as late apoptotic cells at 10 nM incubated for 48 hrs by Annexin V-FITC/PI staining based flow cytometry method (reference value: 3.5%). The experiment is classed as functional.
The subject of experiment [8] is Huh-7. Description: Induction of autophagy in human Huh-7 cells assessed as rescue of mTOR phosphorylation level at upto 10 nM incubated for 48 hrs in presence of gamabufotalin by immunoblot method. The experiment is classed as functional, cell-based.
Experiment [9] relates to Huh-7. The experiment in a line: Induction of autophagic flux in human Huh-7 cells assessed as decrease in p62 expression at upto 25 nM incubated for 48 hrs by Western blot analysis. The class given is functional, cell-based.
The test system of experiment [10] is Hep 3B2. Description: Antitumor activity against human Hep3B cells xenografted in nude mouse model assessed as downregulation of ULK1 phosphorylation expression expression at 5 mg/kg,ip administered every second day for 3 weeks by Western blot analysis. The experiment is classed as functional, organism-based.
The test system of experiment [11] is Hep 3B2. Description: Induction of autophagy in human Hep3B cells assessed as reduction in ULK1 phosphorylation level incubated for 48 hrs by immunoblot method. The class given is functional, cell-based. Particulars: dose 0-25 nM.
Experiment [12] concerns Huh-7. The experiment in a line: Induction of apoptosis in human Huh-7 cells assessed as late apoptotic cells at 25 nM incubated for 48 hrs in presence of 4,6-dimorpholino-N-(4-nitrophenyl)-1,3,5-triazin-2-amine by Annexin V-FITC/PI staining based flow cytometry method (reference value: 3.8%). The experiment is classed as functional.
Experiment [13] relates to Hep 3B2. Description: Antitumor activity against human Hep3B cells xenografted in nude mouse model assessed as downregulation of P62 expression at 5 mg/kg,ip administered every second day for 3 weeks by Western blot analysis. The experiment is classed as functional, organism-based.
Experiment [14] concerns Hep 3B2. Description: Induction of apoptosis in human Hep3B cells assessed as increase in cleaved PARP expression at upto 25 nM incubated for 48 hrs by Western blot analysis. The experiment is classed as functional, cell-based.
The subject of experiment [15] is Huh-7. The experiment in a line: Induction of morphological changes in human Huh-7 cells assessed as round cell morphology at upto 25 nM incubated for 48 hrs by bright field imaging analysis. The experiment is classed as functional, cell-based.
Experiment [16] deals with Huh-7. The experiment in a line: Induction of apoptosis in human Huh-7 cells assessed as necrotic cells at 25 nM incubated for 48 hrs by Annexin V-FITC/PI staining based flow cytometry method (reference value: 0.7%). The class given is functional.
Experiment [17] deals with Hep 3B2. Description: Induction of apoptosis in human Hep3B cells assessed as reduction in bcl-2 level […] incubated for 48 hrs in presence of 4,6-dimorpholino-N-(4-nitrophenyl)-1,3,5-triazin-2-amine by immunoblot analysis. The experiment is classed as functional, cell-based.
Experiment [18] relates to Huh-7. Description: Induction of apoptosis in human Huh-7 cells assessed as necrotic cells at 25 nM incubated for 48 hrs in presence of 4,6-dimorpholino-N-(4-nitrophenyl)-1,3,5-triazin-2-amine by Annexin V-FITC/PI staining based flow cytometry method (reference value: 1.9%). The class given is functional.
The test system of experiment [19] is Hep 3B2. Description: Induction of apoptosis in human Hep3B cells assessed as viable cells at 25 nM measured after 48 hrs in presence of Z-VAD-FMK by annexin V-FITC/Propidium iodide staining based flow cytometric analysis (reference value: 95.6%). Particulars: read-out: Activity. The class given is functional.
In experiment [20] the test system is Hep 3B2. The experiment in a line: Induction of autophagic flux in human Hep3B cells assessed as increase in LC3-II expression at upto 25 nM incubated for 48 hrs by Western blot analysis. The class given is functional, cell-based.
In experiment [21] the test system is Huh-7. The experiment in a line: Induction of apoptosis in human Huh-7 cells assessed as early apoptotic cells at 25 nM incubated for 48 hrs in presence of chloroquine by Annexin V-FITC/PI staining based flow cytometry method (reference value: 2.8%). The experiment is classed as functional.
Experiment [22] has as its system Hep 3B2. Description: Induction of apoptosis in human Hep3B cells assessed as increase in PARP expression at upto 25 nM incubated for 48 hrs by Western blot analysis. The class given is functional, cell-based.
The test system of experiment [23] is Huh-7. The experiment in a line: Induction of autophagic flux in human Huh-7 cells assessed as rescue of LC3-II accumulation at 25 uM incubated for 48 hrs in presence of chloroquine by Western blot analysis. The experiment is classed as functional, cell-based.
The test system of experiment [24] is Huh-7. Description: Induction of apoptosis in human Huh-7 cells assessed as late apoptotic cells at 15 nM incubated for 48 hrs by Annexin V-FITC/PI staining based flow cytometry method (reference value: 2.2%). The class given is functional.
Experiment [25] relates to Huh-7. Description: Induction of autophagy in human Huh-7 cells assessed as restoration of mTOR phosphorylation expression at 25 uM incubated for 48 hrs in presence of 4,6-dimorpholino-N-(4-nitrophenyl)-1,3,5-triazin-2-amine by immunoblot analysis. The class given is functional, cell-based.
The test system of experiment [26] is Huh-7. Description: Induction of apoptosis in human Huh-7 cells assessed as increase in caspase-3 expression at upto 25 nM incubated for 48 hrs by Western blot analysis. The class given is functional, cell-based.
The test system of experiment [27] is Huh-7. Description: Induction of apoptosis in human Huh-7 cells assessed as increase in cleaved PARP expression at upto 25 nM incubated for 48 hrs by Western blot analysis. The experiment is classed as functional, cell-based.
Experiment [28] deals with Hep 3B2. The experiment in a line: Induction of apoptosis in human Hep3B cells assessed as necrotic cells at 25 nM measured after 48 hrs in presence of Z-VAD-FMK by annexin V-FITC/Propidium iodide staining based flow cytometric analysis (reference value: 0.3%). The experiment is classed as functional.
Experiment [29] has as its system Hep 3B2. The experiment in a line: Induction of autophagic flux in human Hep3B cells assessed as increase in LC3-I expression at upto 25 nM incubated for 48 hrs by Western blot analysis. The class given is functional, cell-based.
Experiment [30] has as its system Hep 3B2. Description: Induction of apoptosis in human Hep3B cells assessed as early apoptotic cells at 25 nM incubated for 48 hrs by Annexin V-FITC/PI staining based flow cytometry method (reference value: 1.3%). The class given is functional.
In experiment [31] the test system is Hep 3B2. The experiment in a line: Induction of apoptosis in human Hep3B cells assessed as necrotic cells at 20 nM incubated for 48 hrs by Annexin V-FITC/PI staining based flow cytometry method (reference value: 0.2%). The class given is functional.
The test system of experiment [32] is Huh-7. Description: Induction of apoptosis in human Huh-7 cells assessed as necrotic cells at 20 nM incubated for 48 hrs by Annexin V-FITC/PI staining based flow cytometry method (reference value: 0.7%). The experiment is classed as functional.
Experiment [33] has as its system Huh-7. The experiment in a line: Induction of apoptosis in human Huh-7 cells assessed as reduction in bcl-2 level […] incubated for 48 hrs in presence of 4,6-dimorpholino-N-(4-nitrophenyl)-1,3,5-triazin-2-amine by immunoblot analysis. The experiment is classed as functional, cell-based.

For `CCN(CC)CCCC(C)Nc1ccnc2cc(Cl)ccc12` (stereo not drawn) [CHLOROQUINE], the outcome with Hep 3B2 [1], in the experiment on Hep 3B2 [4], with Hep 3B2 [6] and in the experiment on Huh-7 [8] was Active. Besides, the Activity in the experiment with Hep 3B2 [2] stood at 0.8%; with Huh-7 [3] it was 19.1%; in the experiment on Hep 3B2 [7] it was 4.4%. For the same compound, the viability at 0.01 µM in the experiment with Hep 3B2 [5] is 63.9%.
`C[C@]12CC[C@H](O)C[C@H]1CC[C@@H]1[C@@H]2[C@H](O)C[C@]2(C)[C@@H](c3ccc(=O)oc3)CC[C@]12O` [GAMABUFOTALIN]: the outcome in the experiment on Huh-7 [9], with Hep 3B2 [10], in the experiment with Hep 3B2 [13], in the experiment with Hep 3B2 [14], in the experiment on Huh-7 [15] and in the experiment on Hep 3B2 [17] was Active. Moreover, the outcome in the experiment on Hep 3B2 [20], in the experiment on Hep 3B2 [22], in the experiment on Huh-7 [23], in the experiment with Huh-7 [25], in the experiment on Huh-7 [26] and in the experiment on Huh-7 [27] was Active. In addition, the outcome with Hep 3B2 [29] and in the experiment on Huh-7 [33] was Active. In addition, the Activity result in the experiment with Hep 3B2 [11] is “Dose-Dependent Effect”; with Huh-7 [12], 6.6%; in the experiment on Huh-7 [16] it was 6.3%; with Huh-7 [18], 1.7%; in the experiment with Huh-7 [21], 12.1%; in the experiment with Huh-7 [24], 24.4%. Further, the Activity is 0.3% in the experiment with Hep 3B2 [28], 14.3% with Hep 3B2 [30], 0.3% in the experiment on Hep 3B2 [31] and 4.9% in the experiment with Huh-7 [32]. Also, the viability at 0.025 µM in the experiment on Hep 3B2 [19] was 91.9%.
